# ChEMBL document CHEMBL1129998, “Pharmacological options in the treatment of benign prostatic hyperplasia” (J Med Chem, 1997)
# Tests used:
# Canis familiaris [1] = assay: 50% reduction in agonist induced pressor response in anesthetized dog; assay type: functional; conditions: Canis lupus familiaris; read-out: ID50 (the source's name)
# Canis familiaris [2] = assay: 50% reduction in intraurethral pressure (IUP) in response to hypogastric nerve stimulation or agonist (phenylephrine or norepinephrine) administration in anesthetized dog; assay type: functional; conditions: Canis lupus familiaris; read-out: ID50 (the source's name)
# [3] = target: T1, Alpha-1D adrenergic receptor (Homo sapiens, UniProt P25100); assay: Binding affinity was tested on human Alpha-1D adrenergic receptor
# T1 sequence (P25100 whole entry): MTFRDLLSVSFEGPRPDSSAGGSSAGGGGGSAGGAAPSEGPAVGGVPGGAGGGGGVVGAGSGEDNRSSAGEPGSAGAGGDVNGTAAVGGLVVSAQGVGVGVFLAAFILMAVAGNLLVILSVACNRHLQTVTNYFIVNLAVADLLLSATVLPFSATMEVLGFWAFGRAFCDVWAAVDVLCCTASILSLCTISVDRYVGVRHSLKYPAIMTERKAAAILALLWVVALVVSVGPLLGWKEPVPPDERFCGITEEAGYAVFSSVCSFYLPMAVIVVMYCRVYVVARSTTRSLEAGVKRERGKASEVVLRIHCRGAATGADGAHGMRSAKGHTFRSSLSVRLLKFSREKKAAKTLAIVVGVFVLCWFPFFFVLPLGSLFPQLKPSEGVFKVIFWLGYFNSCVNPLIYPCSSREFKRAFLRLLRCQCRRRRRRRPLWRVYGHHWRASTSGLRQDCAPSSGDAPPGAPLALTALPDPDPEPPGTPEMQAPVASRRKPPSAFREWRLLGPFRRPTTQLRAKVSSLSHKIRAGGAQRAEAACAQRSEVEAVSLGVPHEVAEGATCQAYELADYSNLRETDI
# [4] = target: T2, Adrenergic receptor alpha-1 (Homo sapiens, UniProt P35348+P25100+P35368); assay: pA2 for Alpha-1 adrenergic receptor from human prostate.; assay type: tissue-based, Prostate gland
# T2 sequence (P35348 whole entry): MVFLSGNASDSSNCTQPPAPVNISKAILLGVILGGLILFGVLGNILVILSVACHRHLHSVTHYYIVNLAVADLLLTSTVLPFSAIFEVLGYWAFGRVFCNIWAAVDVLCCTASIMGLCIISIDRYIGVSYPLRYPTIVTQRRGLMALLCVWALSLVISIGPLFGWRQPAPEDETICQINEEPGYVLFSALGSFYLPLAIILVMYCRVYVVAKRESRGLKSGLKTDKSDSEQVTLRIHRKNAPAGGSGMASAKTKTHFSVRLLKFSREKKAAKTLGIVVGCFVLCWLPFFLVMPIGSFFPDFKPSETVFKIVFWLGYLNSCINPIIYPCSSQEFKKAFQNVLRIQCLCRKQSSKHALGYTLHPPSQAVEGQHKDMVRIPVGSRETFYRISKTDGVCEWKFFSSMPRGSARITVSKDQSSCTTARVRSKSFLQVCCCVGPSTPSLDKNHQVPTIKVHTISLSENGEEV
# T2 sequence (P25100 whole entry): T1 sequence (P25100 whole entry)
# T2 sequence (P35368 whole entry): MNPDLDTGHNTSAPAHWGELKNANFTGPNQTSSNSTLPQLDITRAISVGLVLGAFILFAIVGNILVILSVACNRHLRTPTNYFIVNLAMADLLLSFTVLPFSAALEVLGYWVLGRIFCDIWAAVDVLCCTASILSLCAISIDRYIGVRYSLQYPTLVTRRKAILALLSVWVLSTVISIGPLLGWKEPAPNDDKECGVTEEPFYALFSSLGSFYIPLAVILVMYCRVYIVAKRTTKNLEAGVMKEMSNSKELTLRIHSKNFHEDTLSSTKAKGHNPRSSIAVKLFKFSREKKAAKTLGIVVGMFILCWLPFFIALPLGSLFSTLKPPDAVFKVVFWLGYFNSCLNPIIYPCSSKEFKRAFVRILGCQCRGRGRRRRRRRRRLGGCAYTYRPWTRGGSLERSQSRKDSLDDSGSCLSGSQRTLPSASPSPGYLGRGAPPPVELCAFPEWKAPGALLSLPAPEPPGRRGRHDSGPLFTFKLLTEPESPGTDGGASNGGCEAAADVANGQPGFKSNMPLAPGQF
# [5] = target: T3, Alpha-1A adrenergic receptor (Homo sapiens, UniProt P35348); assay: Binding affinity was tested on human Alpha-1A adrenergic receptor
# T3 sequence (P35348 whole entry): T2 sequence (P35348 whole entry)
# [6] = target: T4, Alpha-1B adrenergic receptor (Homo sapiens, UniProt P35368); assay: Binding affinity was tested on human Alpha-1B adrenergic receptor
# T4 sequence (P35368 whole entry): T2 sequence (P35368 whole entry)
# [7] = Inhibitory concentration on human 5-alpha reductase isozyme
# [8] = target: T5, Steroid 5-alpha-reductase (Rattus norvegicus, UniProt P24008+P31214); assay: Inhibition of rat 5-alpha reductase isozyme.; assay type: protein assay
# T5 sequence (P24008 whole entry): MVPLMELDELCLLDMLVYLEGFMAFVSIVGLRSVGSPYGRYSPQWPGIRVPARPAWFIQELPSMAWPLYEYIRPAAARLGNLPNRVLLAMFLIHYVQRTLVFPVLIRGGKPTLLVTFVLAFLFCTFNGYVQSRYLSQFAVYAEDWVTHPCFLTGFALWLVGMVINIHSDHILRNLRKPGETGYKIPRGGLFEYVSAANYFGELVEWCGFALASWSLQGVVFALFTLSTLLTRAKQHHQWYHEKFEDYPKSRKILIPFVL
# T5 sequence (P31214 whole entry): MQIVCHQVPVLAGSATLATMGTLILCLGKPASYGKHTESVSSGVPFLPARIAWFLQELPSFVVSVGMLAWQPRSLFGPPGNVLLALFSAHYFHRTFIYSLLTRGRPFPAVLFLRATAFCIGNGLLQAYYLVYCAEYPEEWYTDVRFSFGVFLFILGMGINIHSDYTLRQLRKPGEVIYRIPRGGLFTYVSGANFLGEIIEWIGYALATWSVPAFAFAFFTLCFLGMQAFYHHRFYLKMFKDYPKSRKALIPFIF
# [9] = Apparent binding affinity on human 5-alpha reductase isozyme
# [10] = target: T5, Steroid 5-alpha-reductase; assay: Apparent binding affinity on rat 5-alpha reductase isozyme; assay type: protein assay
# [11] = target: T6, 3-oxo-5-alpha-steroid 4-dehydrogenase 2 (Homo sapiens, UniProt P31213); assay: Inhibitory concentration on human prostatic 5-alpha reductase 2 isozyme
# T6 sequence (P31213 whole entry): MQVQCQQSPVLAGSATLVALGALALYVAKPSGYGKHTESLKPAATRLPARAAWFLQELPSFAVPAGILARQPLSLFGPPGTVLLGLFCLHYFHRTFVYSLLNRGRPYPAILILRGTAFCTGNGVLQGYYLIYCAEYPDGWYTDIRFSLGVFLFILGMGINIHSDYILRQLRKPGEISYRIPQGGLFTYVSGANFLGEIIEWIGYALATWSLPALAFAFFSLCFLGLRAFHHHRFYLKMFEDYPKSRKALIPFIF
smiles,measurement,setting,value
COc1cc2nc(N3CCN(C(=O)c4ccco4)CC3)nc(N)c2cc1OC [PRAZOSIN],ED50,Canis familiaris [1],0.011 mg/kg
same,ED50,Canis familiaris [2],0.012 mg/kg
O=C(CCCN1CCC(NC(=O)c2ccccc2)CC1)c1ccccc1,Ki,[3],794 nM
same,pA2,[4],7.9
same,Ki,[5],15.8 nM
same,Ki,[6],200 nM
CC(C)N(C(=O)[C@H]1CC[C@H]2[C@@H]3CC[C@H]4C(F)=C(C(=O)O)CC[C@]4(C)[C@H]3CC[C@]12C)C(C)C,IC50,[7],26 nM
same,IC50,[8],35 nM
CC(C)N(C(=O)[C@H]1CCC2C3CC=C4C=C(P(=O)(O)O)CC[C@]4(C)C3CC[C@@]21C)C(C)C (some centres undefined),Ki,[9],25 nM
same,Ki,[10],200 nM
CCOc1ccccc1OCCN[C@H](C)Cc1ccc(OC)c(S(N)(=O)=O)c1 (stereo in doubt; form 1) [TAMSULOSIN],Ki,[3],0.158 nM
same,Ki,[6],1.26 nM
same,ED50,Canis familiaris [1],0.001 mg/kg
same,ED50,Canis familiaris [2],0.002 mg/kg
CC(C)NC(=O)N(C(=O)[C@H]1CCC2C3CCC4N(C)C(=O)C=C[C@]4(C)C3CC[C@@]21C)C(C)C (some centres undefined),IC50,[11],1220 nM
COc1cc2nc(N3CCN(C(=O)C4CCCO4)CC3)nc(N)c2cc1OC (centres undefined) [TERAZOSIN],Ki,[3],3.98 nM
same,ED50,Canis familiaris [1],0.085 mg/kg
same,ED50,Canis familiaris [2],0.101 mg/kg
CN1C(=O)CC[C@]2(C)C3CC[C@@]4(C)C(CC[C@@H]4C(=O)N(C(=O)NC4CCCCC4)C4CCCCC4)C3CCC12 (some centres undefined),IC50,[11],41 nM
CC1=C(C(=O)O)CC[C@@]2(C)C1=CCC1C2CC[C@@]2(C)C1CC[C@@H]2C(=O)N(C(C)C)C(C)C (some centres undefined),IC50,[7],35 nM
same,IC50,[8],70 nM
CC(C)(Cc1c[nH]c2ccc(Cl)cc12)NCCOc1ccccc1OCC1CC1,Ki,[3],15.8 nM
same,pA2,[4],7.3
same,Ki,[5],0.631 nM
same,Ki,[6],15.8 nM
CC(C)N(C(=O)C1=CCC2C3CCC4=CC(C(=O)O)=CC[C@]4(C)C3CC[C@]12C)C(C)C (some centres undefined),IC50,[7],7 nM
same,IC50,[8],47 nM
C=Cc1sc2ccc(Cl)c3c2c1CN(C)CC3,Ki,[3],3.16 nM
same,pA2,[4],7.5
same,Ki,[6],20 nM
CC1=C2C=C(C(=O)O)CC[C@]2(C)C2CC[C@@]3(C)C(CC[C@@H]3C(=O)c3cccc4ccccc34)C2C1 (some centres undefined),IC50,[7],170 nM
same,IC50,[8],200 nM
CC(C)(C)NC(=O)[C@H]1CC[C@H]2[C@@H]3CC=C4C=C(C(=O)O)CC[C@]4(C)[C@H]3CC[C@]12C [EPRISTERIDE],IC50,[7],18 nM
same,IC50,[8],50 nM
